From the supplement of paper PMC10307832

Columns and labels:
Assay in all cases: relative viability (nuclei count vs DMSO), 5 days (fraction); higher = more cells survive
[1] = compound: C1=CC2=NC=CN=C2C=C1/C=C/3\C(=O)NC(=O)S3 + Cc1cc(Nc2cc(N3CCN(C)CC3)nc(Sc3ccc(NC(=O)C4CC4)cc3)n2)n[nH]1 [Tozasertib] (partner 0.1 µM)
In short: (§1)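 Relative viability was taken as the ratio of nuclei in treated wells to nuclei in vehicle wells. Lung cancer cell lines in 1536-well plates received compounds by pin tool one day after seeding, either one drug alone or a fixed anchor-drug dose plus five library-drug doses (not always all listed) in √10 steps. Nuclei were counted on 4× images after 5 days of treatment, and values are medians of duplicate plates.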

[2] = compound: C1=CC2=NC=CN=C2C=C1/C=C/3\C(=O)NC(=O)S3 + N=C(N)NC(=N)NCCc1ccccc1 [Phenformin] (partner 250 µM)
In short: as §1

[3] = compound: CCN1CCN(c2ccc(Nc3cc(N(C)C(=O)Nc4c(Cl)c(OC)cc(OC)c4Cl)ncn3)cc2)CC1 [BGJ398] + CC(C)C[C@H](NC(=O)[C@H](Cc1ccccc1)NC(=O)c1cnccn1)B(O)O [Bortezomib] (partner 0.002 µM)
In short: as §1

[4] = compound: CCN1CCN(c2ccc(Nc3cc(N(C)C(=O)Nc4c(Cl)c(OC)cc(OC)c4Cl)ncn3)cc2)CC1 [BGJ398] + CS(=O)(=O)CCNCc1ccc(-c2ccc3ncnc(Nc4ccc(OCc5cccc(F)c5)c(Cl)c4)c3c2)o1 [Lapatinib] (partner 2 µM)
In short: as §1

Cell Line	relative viability ([1]; first compound 0.02 µM)	relative viability ([1]; first compound 0.06325 µM)	relative viability ([1]; first compound 0.2 µM)	relative viability ([1]; first compound 0.6325 µM)	relative viability ([1]; first compound 2 µM)	relative viability ([2]; first compound 0.02 µM)	relative viability ([2]; first compound 0.06325 µM)	relative viability ([2]; first compound 0.2 µM)	relative viability ([2]; first compound 0.6325 µM)	relative viability ([2]; first compound 2 µM)	relative viability ([3]; first compound 0.01 µM)	relative viability ([3]; first compound 0.03162 µM)	relative viability ([3]; first compound 0.1 µM)	relative viability ([3]; first compound 0.3162 µM)	relative viability ([3]; first compound 1 µM)	relative viability ([4]; first compound 0.01 µM)	relative viability ([4]; first compound 0.03162 µM)	relative viability ([4]; first compound 0.1 µM)	relative viability ([4]; first compound 0.3162 µM)	relative viability ([4]; first compound 1 µM)
HCC-15	0.374	0.333	0.303	0.393	0.49	0.497	0.471	0.488	0.457	0.336	1.01	0.997	1.04	1.08	1.06	0.854	0.855	0.82	0.969	0.974
HCC-44	0.896	0.875	0.947	0.874	0.605	0.314	0.212	0.202	0.153	0.122	0.938	0.84	0.869	0.828	0.713	0.973	1.01	1.01	1.04	0.993
HCC-78	0.384	0.339	0.408	0.394	0.354	0.597	0.592	0.698	0.698	0.368	0.373	0.59	0.468	0.472	0.455	0.568	1.04	1	0.707	0.581
HCC-366	0.114	–	0.135	0.108	0.123	0.609	–	0.632	0.612	0.575	1.07	1.1	1.15	1.09	0.991	1.11	1.07	1.07	1.06	0.924
HCC-827	0.403	0.446	0.417	0.38	0.472	0.481	0.372	0.41	0.427	0.455	0.942	0.945	1.08	0.972	0.973	0.244	–	0.163	0.173	0.2
HOP-62	0.352	0.354	0.34	0.328	0.363	0.549	0.643	0.695	0.646	0.622	0.726	1.05	1.12	0.585	0.788	0.965	1.16	1.18	1.02	1.04
LC-2-ad	0.444	0.353	0.46	0.406	0.449	0.61	0.601	0.655	0.578	0.417	0.968	1.12	1.07	1.01	1.09	0.937	1.02	1	0.978	0.912
LCLC-97TM1	0.201	0.224	0.194	0.211	0.145	0.389	0.374	0.423	0.432	0.162	0.685	0.492	0.789	0.529	0.329	0.525	0.745	0.901	0.979	0.868
LOU-NH91	0.619	0.739	0.634	0.63	0.588	0.712	0.72	0.569	0.703	0.564	0.483	0.498	0.547	0.54	0.472	0.733	0.771	0.731	0.727	0.688
LU99A	0.264	0.284	0.238	0.308	0.251	0.799	0.814	0.862	0.926	0.625	1.08	1.23	1.23	1.13	1.09	0.935	0.896	1.07	0.913	0.85
LXF-289	0.186	0.147	0.185	0.185	0.168	0.491	0.501	0.535	0.526	0.478	0.951	0.918	0.918	0.888	0.896	0.827	0.85	0.817	0.77	0.7
NCI-H23	0.337	0.314	0.363	0.401	0.329	0.79	0.716	0.825	0.781	0.729	0.946	1.05	1.19	1.2	1	1.02	1.06	1.3	0.99	1.07
NCI-H322M	0.523	0.466	0.482	0.461	0.425	0.744	0.813	0.796	0.776	0.669	1.14	0.989	1.21	1.21	1.24	0.675	0.561	0.551	0.581	0.58
NCI-H460	0.411	0.262	0.441	0.392	0.395	0.477	0.619	0.536	0.516	0.468	1.17	1.23	1.45	1.04	1.06	1.02	1.05	1.6	1	1.23
NCI-H520	0.394	0.378	0.451	0.416	0.458	0.635	0.728	0.601	0.464	0.644	0.538	0.54	0.259	0.201	0.162	0.747	0.722	0.661	0.339	0.281
NCI-H596	0.934	0.951	1.1	0.733	0.902	0.744	0.66	0.742	0.675	0.714	0.988	0.72	0.96	1.04	0.769	1.16	0.937	0.974	0.824	0.496

Cell Line	relative viability ([1]; first compound 0.02 µM)	relative viability ([1]; first compound 0.06325 µM)	relative viability ([1]; first compound 0.2 µM)	relative viability ([1]; first compound 0.6325 µM)	relative viability ([1]; first compound 2 µM)	relative viability ([2]; first compound 0.02 µM)	relative viability ([2]; first compound 0.06325 µM)	relative viability ([2]; first compound 0.2 µM)	relative viability ([2]; first compound 0.6325 µM)	relative viability ([2]; first compound 2 µM)	relative viability ([3]; first compound 0.01 µM)	relative viability ([3]; first compound 0.03162 µM)	relative viability ([3]; first compound 0.1 µM)	relative viability ([3]; first compound 0.3162 µM)	relative viability ([3]; first compound 1 µM)	relative viability ([4]; first compound 0.01 µM)	relative viability ([4]; first compound 0.03162 µM)	relative viability ([4]; first compound 0.1 µM)	relative viability ([4]; first compound 0.3162 µM)	relative viability ([4]; first compound 1 µM)
NCI-H647	0.398	0.258	0.423	0.268	0.357	0.587	0.56	0.591	0.384	0.437	0.986	1.12	1.24	0.864	0.793	1.03	1.11	1.21	0.949	1.06
NCI-H650	0.777	0.725	0.705	0.749	0.55	0.453	0.487	0.527	0.448	0.348	0.777	0.909	0.845	0.837	0.627	0.809	0.906	0.837	0.841	0.597
NCI-H661	0.389	0.368	0.352	0.335	0.374	0.239	0.393	0.289	0.298	0.249	0.7	0.905	0.799	0.767	1	0.501	0.595	0.473	0.457	0.49
NCI-H727	0.676	0.703	0.736	0.569	0.545	0.552	0.504	0.686	0.454	0.283	0.899	0.822	0.796	0.882	0.774	1.05	0.799	1.22	0.789	0.648
NCI-H838	0.299	0.271	0.221	0.238	0.242	0.664	0.737	0.596	0.461	0.36	0.636	0.921	0.655	0.776	0.5	0.755	0.867	0.914	0.623	0.413
NCI-H1355	0.515	0.427	0.556	0.568	0.468	0.435	0.374	0.489	0.431	0.392	1.05	1.27	1.2	1.15	0.603	0.936	1.05	1.01	0.95	0.644
NCI-H1437	0.404	0.388	0.388	0.418	0.323	0.258	0.286	0.369	0.274	0.233	0.521	0.56	0.412	0.536	0.462	0.829	0.762	0.905	0.729	0.644
NCI-H1650	0.434	0.446	0.459	0.375	0.411	0.442	0.392	0.503	0.432	0.385	0.22	0.203	0.184	0.174	0.19	0.608	0.828	0.367	0.32	0.234
NCI-H1651	0.827	0.62	0.664	0.608	0.61	0.314	0.321	0.325	0.298	0.285	0.909	0.932	1.05	1	0.911	0.796	0.897	0.962	0.693	0.676
NCI-H1666	0.591	0.617	0.575	0.674	0.603	0.36	0.481	0.578	0.541	0.548	0.88	0.774	0.793	0.816	0.629	0.656	0.704	0.508	0.7	0.255
NCI-H1734	0.256	0.262	0.317	0.248	0.278	0.392	0.35	0.384	0.343	0.279	0.95	0.889	0.933	0.805	0.825	0.992	1.03	1.11	0.961	1.06
NCI-H1755	0.585	0.562	0.66	0.51	0.49	0.578	0.625	0.588	0.62	0.562	1	0.872	0.975	0.921	0.875	1.01	1.04	1.05	1.01	1.01
NCI-H1915	0.452	0.48	0.41	0.418	0.428	0.354	0.415	0.378	0.371	0.375	0.952	0.972	0.969	0.977	0.864	0.976	0.977	0.988	1.01	0.928
NCI-H1975	0.804	0.917	0.759	0.712	0.708	0.406	0.448	0.408	0.402	0.312	0.431	0.405	0.404	0.384	0.319	0.915	0.903	0.859	0.899	0.785
NCI-H1993	0.545	0.593	0.612	0.543	0.436	0.492	0.529	0.513	0.557	0.599	1.17	0.753	1.2	1.23	1.19	0.8	0.825	0.87	0.935	0.746
NCI-H2009	0.747	0.77	0.721	0.744	0.761	0.507	0.454	0.508	0.482	0.461	0.918	1.09	0.955	0.978	1.14	0.863	0.966	0.965	0.924	0.955
